Test results taken from patent EP0547191B1, “PARTICULATE VECTOR HAVING SELECTIVE TROPISM, METHOD OF PREPARATION AND PHARMACEUTICAL COMPOSITION” (BIOVECTOR THERAPEUTICS SA, priority 1991, dated 1992).

Test system: fibroblastes humains normaux
Experiment: Flow cytofluorimetry: cellular incorporation of doxorubicin measured by emitted fluorescence
Assay type: cell-based
Conditions: fibroblasts after 48h in lipoprotein-depleted medium
Description: Après 48h de culture en milieu délipoprotéiné, les fibroblastes humains normaux sont incubés avec de la doxorubicine sous forme libre ou encapsulée dans des BVSM ou des BVSM-apoB. Après incubation, de 0, à 2h, ils sont lavés, mis en contact avec de la trypsine 0,05% pendant 1min à37°C, repris en suspension dans du milieu de culture et fixés par du paraformaldéhyde. Les suspensions cellulaires obtenues sont analysées à l'aide d'un cytofluorimètre de flux (Becton-Dickinson Fac-scan) et l'incorporation cellulaire de la doxorubicine est mesurée par l'intensité de fluorescence émise. Les témoins fibroblastes avec BVSM et BVSM-apoB sans doxorubicine ne présentent aucune fluoresence.
Les résultats obtenus sont présentés dans le tableau suivant : […]

COc1cccc2c1C(=O)c1c(O)c3c(c(O)c1C2=O)C[C@@](O)(C(=O)CO)C[C@@H]3O[C@H]1C[C@H](N)[C@H](O)[C@H](C)O1 [Doxorubicine libre, doxorubicine]
Intensité de fluorescence émise (Temps d'incubation 0 min): 5
Intensité de fluorescence émise (Temps d'incubation 10 min): 22
Intensité de fluorescence émise (Temps d'incubation 30 min): 25
Intensité de fluorescence émise (Temps d'incubation 60 min): 31
Intensité de fluorescence émise (Temps d'incubation 120 min): 42
